In US20150105252A1, “SUBSTITUTED PYRAZOLES AS HERBICIDES” (E I DU PONT DE NEMOURS AND COMPANY, priority 2013, published 2015):

Assays:
[1] = tested on: barnyardgrass; assay: Test C postemergence; assay type: in vivo, Echinochloa crus-galli; details: for Plant response rating (scale of 0 to 100 where 0 is no effect and 100 is complete control), Barnyardgrass: 31 g ai/ha, visually evaluated after 13 to 15 days; for Barnyardgrass plant response rating / Plant response rating, Barnyardgrass: postemergence; for Barnyardgrass plant response rating: 62 g ai/ha, scale 0 to 100
Excerpt: Seeds of plant species selected from blackgrass (Alopecurus myosuroides), ryegrass, Italian (Italian ryegrass, Lolium multiflorum), wheat (winter wheat, Triticum aestivum), galium (catchweed bedstraw, Galium aparine), corn (Zea mays), crabgrass, large (large crabgrass, Digitaria sanguinalis), foxtail, giant (giant foxtail, Setaria faberii), johnsongrass (Sorghum halepense), lambsquarters (Chenopodium album), morningglory (Ipomoea coccinea), nutsedge, yellow (yellow nutsedge, Cyperus esculentus), pigweed (redroot pigweed, Amaranthus retroflexus), ragweed (common ragweed, Ambrosia elation), soybean (Glycine max), barnyardgrass (Echinochloa crus-galli), oilseed rape (Brassica napus), waterhemp (common waterhemp, Amaranthus rudis), oat, wild (wild oat, Avena fatua), kochia (Kochia scoparia), Surinam grass (Brachiaria decumbens), foxtail, green (green foxtail, Setaria viridis), goosegrass (Eleusine indica), bromegrass, downy (downy bromegrass, Bromus tectorum), nightshade (eastern black nightshade, Solanum ptycanthum), cocklebur (common cocklebur, Xanthium strumarium), cupgrass, woolly (woolly cupgrass, Eriochloa villosa), bermudagrass (Cynodon dactylon), sunflower, (common oilseed sunflower, Helianthus annuus), Russian thistle (Salsola kali), and velvetleaf (Abutilon theophrasti) were planted into a blend of loam soil and sand and treated preemergence with test chemicals formulated in a non-phytotoxic solvent mixture which included a surfactant.
At the same time, plants selected from these crop and weed species and also chickweed (common chickweed, Stellaria media), canarygrass (littleseed canarygrass, Phalaris minor), and deadnettle (henbit deadnettle, Lamium amplexicaule), were planted in pots containing Redi-Earth® planting medium (Scotts Company, 14111 Scottslawn Road, Marysville, Ohio 43041) comprising spaghnum peat moss, vermiculite, wetting agent and starter nutrients and treated with postemergence applications of test chemicals formulated in the same manner. Plants ranged in height from 2 to 18 cm (1- to 4-leaf stage) for postemergence treatments. Treated plants and controls were maintained in a greenhouse for 13 to 15 days, after which time all species were compared to controls and visually evaluated. Plant response ratings, summarized in Table C, are based on a scale of 0 to 100 where 0 is no effect and 100 is complete control. A dash (-) response means no test result.

[2] = tested on: ducksalad; assay: Test B flood; assay type: in vivo, Heteranthera limosa; details: 250 g ai/ha, visual rating on 0 to 100 scale (0 no effect, 100 complete control), 13 to 15 days
In short: (§1)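 Paddy-water application: seedlings at 2-leaf stage, flood depth 3 cm maintained for the test duration. Evaluation after 13–15 days in the greenhouse by eye relative to controls; 0–100 scale.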

[3] = tested on: barnyardgrass; assay: Test A preemergence; assay type: in vivo, Echinochloa crus-galli
In short: (§2)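 Visual injury rating, 0–100 (0 no effect, 100 complete control), vs untreated controls ~10 days after treatment in greenhouse. Pre: directed soil spray on seeded loam/sand. Post: 2–10 cm plants, 1–2 leaf stage. Formulation: non-phytotoxic solvent mix + surfactant.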

[4] = tested on: ragweed; assay: Test C postemergence; assay type: in vivo, Ambrosia elation; details: for Plant response rating (scale of 0 to 100 where 0 is no effect and 100 is complete control), Ragweed: 31 g ai/ha, visually evaluated after 13 to 15 days; for Ragweed plant response rating / Plant response rating, Ragweed: postemergence; for Ragweed plant response rating: 62 g ai/ha, scale 0 to 100
In short: (§3)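 Seeds sown in loam–sand blend and treated preemergence with test chemicals in non-phytotoxic solvent with surfactant; postemergence plants in peat-based medium, treated at 2–18 cm (1- to 4-leaf stage). Greenhouse 13 to 15 days, then visual rating versus controls, 0 (no effect) to 100 (complete control).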

[5] = tested on: oat, wild; assay: Test C postemergence; assay type: in vivo, Avena fatua; details: for Plant response rating (scale of 0 to 100 where 0 is no effect and 100 is complete control), Oat, Wild: 31 g ai/ha, visually evaluated after 13 to 15 days; for Oat, Wild plant response rating / Plant response rating, Oat, Wild: postemergence; for Oat, Wild plant response rating: 62 g ai/ha, scale 0 to 100
In short: as §3

[6] = tested on: corn; assay: Test A postemergence; assay type: in vivo, Zea mays
In short: as §2

[7] = tested on: rice; assay: Test B flood; assay type: in vivo, Oryza sativa; details: 250 g ai/ha, visual rating on 0 to 100 scale (0 no effect, 100 complete control), 13 to 15 days
In short: as §1

[8] = tested on: ragweed; assay: Test C preemergence; assay type: in vivo, Ambrosia elation
In short: as §3

[9] = tested on: foxtail, giant; assay: Test C preemergence; assay type: in vivo, Setaria faberii; details: for Plant response rating (scale of 0 to 100), Foxtail, Giant: 250 g ai/ha
In short: as §3

[10] = tested on: barnyardgrass; assay: Test A postemergence; assay type: in vivo, Echinochloa crus-galli
In short: as §2

[11] = tested on: pigweed; assay: Test A postemergence; assay type: in vivo, Amaranthus retroflexus
In short: as §2

[12] = tested on: crabgrass, large; assay: Test C postemergence; assay type: in vivo, Digitaria sanguinalis; details: for Plant response rating (scale of 0 to 100 where 0 is no effect and 100 is complete control), Crabgrass, Large: 31 g ai/ha, visually evaluated after 13 to 15 days; for Crabgrass, Large plant response rating / Plant response rating, Crabgrass, Large: postemergence; for Crabgrass, Large plant response rating: 62 g ai/ha, scale 0 to 100
In short: as §3

[13] = tested on: blackgrass; assay: Test C preemergence; assay type: in vivo, Alopecurus myosuroides
In short: as §3

[14] = 250 g ai/ha, scale 0 to 100 (0 no effect, 100 complete control)
[15] = 125 g ai/ha, scale 0 to 100, 0 no effect, 100 complete control
[16] = preemergence, 125 g ai/ha, visual injury, 0 to 100 scale, approx. 10 days
[17] = Postemergence, 500 g ai/ha, visual rating after approx. 10 days, 0 to 100 scale (0 no effect, 100 complete control)
[18] = postemergence, 125 g ai/ha, about 10 days, visual rating on 0 to 100 scale (0 no effect, 100 complete control)
[19] = preemergence, 31 g ai/ha, visual rating, scale 0 to 100 (0 no effect, 100 complete control), 13 to 15 days
[20] = preemergence, 62 g ai/ha, 13 to 15 days, scale 0 to 100, 0 = no effect, 100 = complete control
[21] = preemergence, 125 g ai/ha, scale 0 to 100, 0 is no effect, 100 is complete control
[22] = preemergence, 500 g ai/ha, visual injury after approx. 10 days, 0 to 100 scale (0 no effect, 100 complete control)
[23] = Preemergence, 16 g ai/ha, scale 0 to 100

SMILES	Plant response rating (scale of 0 to 100 where 0 is no effect and 100 is complete control), Barnyardgrass ([1]; Postemergence)	Barnyardgrass plant response rating [1]	Plant response rating, Barnyardgrass [1, 15]	Plant response rating, Ducksalad [2]	Barnyardgrass plant response rating [3, 16]	Plant response rating (scale of 0 to 100 where 0 is no effect and 100 is complete control), Ragweed ([4]; Postemergence)	Ragweed plant response rating [4]	Plant response rating, Ragweed [4, 15]	Plant response rating (scale of 0 to 100 where 0 is no effect and 100 is complete control), Oat, Wild ([5]; Postemergence)	Oat, Wild plant response rating [5]	Plant response rating, Oat, Wild [5, 15]	Corn plant response rating [6, 17]	Corn plant response rating [6, 18]	Plant response rating, Rice [7]	Foxtail, Giant plant response rating [9, 19]	Plant response rating, Foxtail, Giant [9, 20]	Foxtail, Giant plant response rating [9, 21]	Barnyardgrass plant response rating [10, 17]	Pigweed plant response rating [11, 17]	Pigweed plant response rating [11, 18]	also measured
CCc1cc(C(=O)NCC(F)(F)F)nn1Cc1ccnc(C(F)(F)F)c1 [Compound 78, 5-ethyl-N-(2,2,2-trifluoroethyl)-1-[[(2-trifluoromethyl)-4-pyridinyl]methyl]-1H-pyrazole-3-carboxamide]	5	15	15	85	100	35	75	85	5	5	10	100	100	50	90	98	98	90	100	100	Plant response rating, Barnyardgrass [1, 14]: 80; Barnyardgrass plant response rating ([3]; Preemergence, 500 g ai/ha, 0 to 100 scale, 0 no effect, 100 complete control): 100; Plant response rating, Ragweed [4, 14]: 95; Plant response rating, Oat, Wild [5, 14]: 30; Plant response rating (scale of 0 to 100), Ragweed ([8]; Preemergence, 250 g ai/ha): 100; Ragweed plant response rating [8, 19]: 80; Plant response rating, Ragweed [8, 20]: 98; Ragweed plant response rating [8, 21]: 98; Plant response rating (scale of 0 to 100), Foxtail, Giant ([9]; Preemergence): 100; Barnyardgrass plant response rating ([10]; Postemergence, 125 g ai/ha, 0 to 100 scale, 0 no effect, 100 complete control): 50; Plant response rating (scale of 0 to 100 where 0 is no effect and 100 is complete control), Crabgrass, Large ([12]; Postemergence): 15; Crabgrass, Large plant response rating [12]: 25; Plant response rating, Crabgrass, Large [12, 14]: 90; Plant response rating, Crabgrass, Large [12, 15]: 80
CCc1cc(C(=O)NOC(C)C)nn1Cc1ccnc(C(F)(F)F)c1 [Compound 101]	5	5	5	70	100	15	20	75	0	5	10	100	90	0	80	98	100	90	90	60	Plant response rating (scale of 0 to 100), Barnyardgrass ([1]; Postemergence, 16 g ai/ha): 5; Barnyardgrass plant response rating [3, 22]: 100; Plant response rating (scale of 0 to 100), Ragweed ([4]; Postemergence, 16 g ai/ha): 15; Plant response rating (scale of 0 to 100), Oat, Wild ([5]; Postemergence, 16 g ai/ha): 0; Plant response rating, Blackgrass [13, 23]: 30; Blackgrass plant response rating [13, 19]: 75; Plant response rating, Blackgrass [13, 20]: 90; Blackgrass plant response rating [13, 21]: 95; Plant response rating, Foxtail, Giant [9, 23]: 15; Barnyardgrass plant response rating [10, 18]: 80; Plant response rating (scale of 0 to 100), Crabgrass, Large ([12]; Postemergence, 16 g ai/ha): 5; Plant response rating (scale of 0 to 100 where 0 is no effect and 100 is complete control), Crabgrass, Large ([12]; Postemergence): 5; Crabgrass, Large plant response rating [12]: 15; Plant response rating, Crabgrass, Large [12, 15]: 20
CCc1cc(C(=O)NC(C)C)nn1Cc1ccnc(C(F)(F)F)c1 [Compound 103]	10	15	15	90	100	35	70	80	5	5	50	90	80	50	100	100	100	90	90	90	Plant response rating, Barnyardgrass [1, 14]: 95; Barnyardgrass plant response rating [3, 22]: 100; Plant response rating, Ragweed [4, 14]: 90; Plant response rating, Oat, Wild [5, 14]: 50; Plant response rating (scale of 0 to 100), Blackgrass ([13]; Preemergence, 250 g ai/ha): 100; Blackgrass plant response rating [13, 19]: 100; Plant response rating, Blackgrass [13, 20]: 100; Blackgrass plant response rating [13, 21]: 100; Plant response rating (scale of 0 to 100), Foxtail, Giant ([9]; Preemergence): 100; Barnyardgrass plant response rating [10, 18]: 90; Plant response rating (scale of 0 to 100 where 0 is no effect and 100 is complete control), Crabgrass, Large ([12]; Postemergence): 10; Crabgrass, Large plant response rating [12]: 15; Plant response rating, Crabgrass, Large [12, 14]: 85; Plant response rating, Crabgrass, Large [12, 15]: 35
